The source of these data is BindingDB's records for patent US20260049084 (Gossamer Bio Services, 2026).

Assay [1] addresses T1, Ectonucleotide pyrophosphatase/phosphodiesterase family member 1 (Homo sapiens, UniProt P22413).
T1 sequence (P22413 whole entry): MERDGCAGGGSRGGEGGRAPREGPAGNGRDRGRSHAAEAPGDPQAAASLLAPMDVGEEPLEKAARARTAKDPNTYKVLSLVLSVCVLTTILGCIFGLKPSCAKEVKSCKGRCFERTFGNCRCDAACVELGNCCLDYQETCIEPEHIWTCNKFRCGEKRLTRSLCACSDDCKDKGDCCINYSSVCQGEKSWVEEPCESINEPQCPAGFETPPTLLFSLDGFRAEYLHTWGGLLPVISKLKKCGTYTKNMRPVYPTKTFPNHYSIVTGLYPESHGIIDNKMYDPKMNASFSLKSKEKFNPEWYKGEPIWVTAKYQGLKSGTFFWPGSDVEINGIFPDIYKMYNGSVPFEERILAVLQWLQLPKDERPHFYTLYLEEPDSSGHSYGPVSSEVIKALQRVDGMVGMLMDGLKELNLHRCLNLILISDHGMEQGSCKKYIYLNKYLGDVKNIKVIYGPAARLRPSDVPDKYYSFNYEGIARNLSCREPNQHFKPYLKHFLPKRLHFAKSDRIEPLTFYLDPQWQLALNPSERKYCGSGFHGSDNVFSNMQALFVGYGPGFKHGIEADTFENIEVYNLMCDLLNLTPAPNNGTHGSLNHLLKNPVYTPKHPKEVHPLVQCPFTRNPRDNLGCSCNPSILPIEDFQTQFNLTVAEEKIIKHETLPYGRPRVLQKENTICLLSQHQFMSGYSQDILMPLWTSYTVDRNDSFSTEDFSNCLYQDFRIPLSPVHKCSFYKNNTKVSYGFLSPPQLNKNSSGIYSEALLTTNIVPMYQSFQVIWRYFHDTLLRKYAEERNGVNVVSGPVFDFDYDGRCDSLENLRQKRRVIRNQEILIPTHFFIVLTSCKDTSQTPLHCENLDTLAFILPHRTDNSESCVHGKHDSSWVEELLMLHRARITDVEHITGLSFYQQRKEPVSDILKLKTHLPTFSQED
Kind of assay: ENPP1 cGAMP Biochemical Assay. How it is done: Compounds were added to 384 well Proxiplate (PerkinElmer, Waltham MA) at 100 nl/well from DMSO stocks using Echo (Labcyte, San Jose CA). Recombinant human ENPP1 protein (R&D Systems, Minneapolis MN) was prepared in assay buffer (50 mM Tris pH7.5, 1 mM TCEP pH7.0, 2 mM MgCl2 and 0.005% Tween20) and added at 10 μl/well. The plate was sealed, centrifuged at 1000 rpm for 1 minute and incubated at room temperature for 30 minutes before 5 μl substrate 2′3′-cGAMP (R&D Systems, Minneapolis MN) in assay buffer was added to each well to a final concentration of 0.5 nM ENPP1 and 1000 nM 2′3′-cGAMP. The plate was sealed and centrifuged at 1000 rpm for 1 minute again. After incubation at 25° C. for 60 minutes, Terbium labelled AMP/GMP antibody and AMP/GMP HiLyte647 Tracer (BellBrook Labs, Fitchburg WI) in detection buffer (50 mM Tris pH7.5, 20 mM EDTA and 0.1% Prionex) were added to the reaction mixture to a final concentration of 2 nM (5 μl/well). The assay plate was incubated at room temperature for 120 minutes. TR-FRET signal was detected using Envision (PerkinElmer, Waltham MA).

In assay [2] the target is T2, Ectonucleotide pyrophosphatase/phosphodiesterase family member 3 (Homo sapiens, UniProt O14638).
T2 sequence (O14638 whole entry): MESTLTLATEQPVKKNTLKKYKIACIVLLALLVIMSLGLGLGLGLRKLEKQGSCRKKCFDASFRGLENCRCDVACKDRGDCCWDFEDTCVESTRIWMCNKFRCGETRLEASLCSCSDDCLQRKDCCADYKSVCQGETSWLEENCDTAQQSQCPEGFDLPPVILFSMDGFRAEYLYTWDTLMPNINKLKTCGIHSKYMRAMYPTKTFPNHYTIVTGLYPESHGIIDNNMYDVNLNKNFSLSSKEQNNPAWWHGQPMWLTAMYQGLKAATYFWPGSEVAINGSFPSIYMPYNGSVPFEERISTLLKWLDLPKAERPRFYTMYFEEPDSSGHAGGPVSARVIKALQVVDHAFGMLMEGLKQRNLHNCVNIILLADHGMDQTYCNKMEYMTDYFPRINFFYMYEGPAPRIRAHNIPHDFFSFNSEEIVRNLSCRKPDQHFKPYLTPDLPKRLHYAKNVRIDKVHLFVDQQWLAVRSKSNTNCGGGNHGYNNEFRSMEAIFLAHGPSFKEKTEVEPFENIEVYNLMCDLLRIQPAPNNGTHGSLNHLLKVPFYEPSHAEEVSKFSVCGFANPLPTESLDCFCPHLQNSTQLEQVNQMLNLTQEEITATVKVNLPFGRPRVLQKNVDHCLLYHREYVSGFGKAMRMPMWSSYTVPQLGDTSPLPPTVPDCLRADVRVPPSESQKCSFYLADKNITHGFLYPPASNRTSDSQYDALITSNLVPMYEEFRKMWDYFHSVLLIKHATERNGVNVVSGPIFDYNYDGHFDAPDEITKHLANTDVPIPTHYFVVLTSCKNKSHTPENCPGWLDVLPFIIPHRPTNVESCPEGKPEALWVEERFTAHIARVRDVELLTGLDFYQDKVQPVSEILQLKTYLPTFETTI
Kind of assay: ENPP3 cGAMP Biochemical Assay. How it is done: Compounds were added to 384 well Proxiplate (PerkinElmer, Waltham MA) at 100 nl/well from DMSO stocks using Echo (Labcyte, San Jose CA). Recombinant human ENPP3 protein (Acro Biosystems, Newwark DE) was prepared in assay buffer (50 mM Tris pH7.5, 1 mM TCEP pH7.0, 2 mM MgCl2, 2 mM CaCl2), 2 mM ZnCl2 and 0.005% Tween20) and added at 2 μl/well. […] The plate was sealed and centrifuged at 1000 rpm for 1 minute again. […] The assay plate was incubated at room temperature for 120 minutes. TR-FRET signal was detected using Envision (PerkinElmer, Waltham MA).

The next assay deals with Carbonic anhydrase 2 (Homo sapiens, UniProt P00918). Nature of the assay: Carbonic Anhydrase 2 Enzymatic Assay. How it is done:
Test compound and/or vehicle was preincubated with carbonic anhydrase II enzyme (15 μg/ml) isolated from human erythrocyte in reaction buffer (50 mM MOPS solution pH 7.5) for 15 minutes at 25° C. The reaction was initiated by addition of 500 μM 4-nitrophenyl acetate and incubated for 30 minutes. The plate was read on a spectrophotometer (Absorbance: 400 nm).

For a further assay, the target named is Carbonic anhydrase 1 (Homo sapiens, UniProt P00915). Nature of the assay: Carbonic Anhydrase 1 Enzymatic Assay. As to the method: Test compound and/or vehicle was preincubated with carbonic anhydrase I enzyme (15 μg/ml) isolated from human erythrocyte in reaction buffer (50 mM MOPS solution pH 7.5) for 15 minutes at 25° C. The reaction was initiated by addition of 500 μM 4-nitrophenyl acetate and incubated for 30 minutes. The plate was read on a spectrophotometer (Absorbance: 400 nm)
Sequence of Carbonic anhydrase 1 (P00915 whole entry): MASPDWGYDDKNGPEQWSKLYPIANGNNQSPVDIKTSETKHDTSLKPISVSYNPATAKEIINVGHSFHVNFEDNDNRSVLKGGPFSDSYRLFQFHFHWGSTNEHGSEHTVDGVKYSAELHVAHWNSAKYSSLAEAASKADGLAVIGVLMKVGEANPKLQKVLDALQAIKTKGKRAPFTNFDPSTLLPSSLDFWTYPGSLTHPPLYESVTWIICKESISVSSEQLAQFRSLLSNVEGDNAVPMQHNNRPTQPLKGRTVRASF

By IC50 is commonly meant the concentration that inhibits the measured activity by half. Read a high IC50 as weaker potency. As to `CCn1nc(Cl)c2c(NCC3CCN(S(=N)(=O)CCNC(C)=O)CC3)ccnc21` (centres undefined) [US20260049084, Compound 14K], the IC50 in assay [1] is less than 10 nM; in assay [2] it was greater than 1000 nM.

With `CN=[S@](N)(=O)N1CCC(CNc2ccnc3c2c(Cl)nn3CC#N)CC1` [US20260049084, Compound 15G], the 50% inhibitory concentration (IC50) against Carbonic anhydrase 2 and at Carbonic anhydrase 1 was greater than 1000 nM in each case.
